Here are results for two molecules from publication PMC6930503, “Antiviral, Antimicrobial and Antibiofilm Activity of Selenoesters and Selenoanhydrides” (Molecules, 2019).

For data set [1], the system named is Candida krusei ATCC 14243. Conditions: reference, range calculated from data in bibliography; cited from earlier work.
In data set [2] the test system is Candida parapsilosis ATCC 22019. To be noted: reference, range calculated from data in bibliography; cited from earlier work.
Data set [3] deals with Candida albicans ATCC 10231. To be noted: reference, range calculated from data in bibliography; cited from earlier work.
The nature of data set [4]: MTT cytotoxicity assay on Vero cells. Conditions: African green monkey. A general note: Formazan colour is commonly taken as a measure of viable cells.
In data set [5] the test system is S. aureus ATCC 25923. As to the kind of experiment: Antibiofilm effect in combination with ciprofloxacin. Type of data set: cell-based, Staphylococcus aureus. To be noted: CIP at 1.6 µM, compound at ½ MIC. As to the method: (§1) […]; 4, 5, 7, 8 and 9 for S. Typhimurium).
(§2) […]. The effect was determined by two-fold broth microdilution method in 96-well plates, using serial dilutions of TET and CIP. The first four rows contained two-fold dilutions of antibiotics, and combinations of the antibiotics and tested compounds were added into the last four rows. The overnight bacterial cultures were diluted to an OD of 0.1 at 600 nm and then added to each well, in 50 μL LB, without salt or TSB, with the exception of the medium control wells. The plates were then incubated at 30 °C, for 48 h, with gentle agitation (100 rpm), and the biofilm formation was determined by measuring the OD at 600 nm, using a FLUOstar Optima plate reader. The antibiofilm effect of antibiotic alone and in combination with selenocompounds was expressed in the percentage (%) of decrease in biofilm formation. The results were analyzed by using the t-test and p-values of <0.05 were considered significant.

In another data set the test system is HSV-2. Briefly: Anti-HSV-2 activity by qPCR in infected Vero cells. (Quantitative PCR measures a nucleic acid by following its amplification.)
The test system of data set [6] is S. aureus ATCC 25923. Briefly: Biofilm formation assay with crystal violet. Type of data set: cell-based. Conditions: Staphylococcus aureus, ATCC25923; compound at 50 μM, 48 h. As to the method: The biofilm-forming ability of S. Typhimurium and S. aureus ATCC strains was studied in 96-well microtiter plates, using Luria-Bertani (LB) broth without salt (S. Typhimurium) or tryptic soy broth TSB (S. aureus) in the presence of selenocompounds. Initially, overnight cultures were diluted to an optical density (OD) of 0.1 at 600 nm and then added to each well, with the exception of the medium control wells and compounds were added individually at ½ MIC. The final volume was 200 μL in each well. Plates were incubated at 30 °C, for 48 h, with gentle agitation (100 rpm). After the incubation period, the medium was discarded, and the plate was washed with tap water, to remove unattached cells. Then, 200 μL of crystal violet (CV; 0.1% [v/v]) was added to the wells and incubated for 15 min at room temperature. CV was removed from the wells, and the plate was washed again with tap water. Then, 200 μL of 70% ethanol was added to each well, and the biofilm formation was determined by measuring the OD at 600 nm, using a FLUOstar Optima plate reader (BMG Labtech, Aylesbury, UK). The antibiofilm effect of selenocompounds was expressed in the percentage (%) decrease in biofilm formation. The assay was repeated a minimum of three times. The results were analyzed by using the t-test and p-values of <0.05 were considered significant.

For data set [7], the system named is S. enterica serovar Typhimurium 14028s. As to the kind of experiment: Antibiofilm effect in combination with tetracycline. Type of data set: cell-based, Salmonella enterica serovar Typhimurium. To be noted: 2.5 µM of TET, compound at ½ MIC. As to the method:
as §1, §2

Data set [8] relates to selected pathogenic yeasts. Briefly: Antifungal disk-diffusion screening, overall statement on all evaluated strains. To be noted: 200 µM and 10 mM on disk. In general terms: A growth-free zone around the sample is the usual read-out of agar diffusion tests.
Experimental: Disk diffusion. The antifungal activity of the selenocompounds against selected pathogenic yeasts were screened, measuring their inhibition zones [49]. Solutions of the selenocompounds were set at two concentrations: 200 µM (from a 10 mM stock solution) and 10 mM. The sterile filter paper discs (diameter (D) 6 mm) impregnated with the solutions (10 µL of solutions) were placed on Saboraud Dextrose Agar (SDA), inoculated with the respective suspensions of yeasts (inocula of 0.5 McFarland’s standard). The solvent (DMSO) served as negative control, and an additional plate was inoculated without disks, to serve as growth control. The inocula were used within 15 min of preparation, the disks were applied within 15 min of inoculating the plates, and incubation started within 15 min of application of the disks (according to EUCAST standards). The plates were then incubated for 72 h, under aerobic conditions, at 37 °C. Inhibition zone diameters generated by the tested compounds (including the diameter of the disc) were measured. All experiments were performed in triplicate.

As to `CC[C@H](C)C[C@H](C)CCCCCCCCC(=O)N[C@H]1C[C@@H](O)[C@@H](NCCN)NC(=O)[C@@H]2[C@@H](O)CCN2C(=O)[C@H]([C@H](O)CCN)NC(=O)[C@H]([C@H](O)[C@@H](O)c2ccc(O)cc2)NC(=O)[C@@H]2C[C@@H](O)CN2C(=O)[C@H]([C@@H](C)O)NC1=O` [CSP, caspofungin], the Minimal inhibitory concentration in [1] is 0.055 to 0.229 µM; in [2], 0.110 to 1.83 µM; in [3], at most 0.007 to 0.110 µM.
In the case of `COC(=O)C[Se]C(=O)c1ccc(Cl)cc1` [Compound 7], in data set [4], the IC50 at 24 h is over 100 µM. Further, in the data set with S. aureus ATCC 25923 [5], the “effect on the antibiofilm activity of CIP” value is recorded as “significantly increased the activity of CIP”. Also, the minimal effective concentration in the data set on HSV-2 (Human alphaherpesvirus 2, Vero, 24 h, read-out: lowest concentration with (significant) antiviral activity against HSV-2, Vero cells infected with HSV-2, MOI 0.01, qPCR after 24 h) amounted to 12.5 µM. For the same molecule, the “antiviral activity at concentration x-fold lower than the cytotoxic concentration (IC50 in Vero cells)” value in the data set with HSV-2 (Vero IC50 / antiviral concentration) amounted to 8 fold. For the same molecule, the “concentration at which replication of HSV-2 was completely inhibited” value in the data set with HSV-2 (Vero cells infected with HSV-2, qPCR) came to 50 µM. In the data set with S. aureus ATCC 25923 [6], the inhibition at 50 µM was over 70%. Besides, the “effect on the antibiofilm activity of TET compared to TET alone” value in [7] is “significantly reduced the activity of the antibiotic”. Further, the “antifungal activity in the disk-diffusion assay (in words)” value in [8] was “did not show antifungal activity”.

The term IC50 denotes the concentration that gives 50% inhibition. Usually inhibition stands for the relative decrease from the control value, in per cent.
